Reference: PMC10762078, “Role of UPF1-LIN28A interaction during early differentiation of pluripotent stem cells” (Nature Communications, 2024)
Ends that are not written are not given here.

Test system: hPSCs
Assay: RT-qPCR of pluripotency and germ-layer markers during differentiation with CPP-peptides (Supplementary Fig. 7b-e)
Assay type: cell-based, human
Conditions: for Difference between means (B - A) ± SEM: P8 - P1
Experimental: For CPP-conjugated peptide delivery, HeLa, 293T, and PA-1 cells were incubated with CPP-conjugated peptides or CPP-FITC at 2 μM in DMEM with 10% FBS for 12 h a day before cell harvest. hPSCs were treated with CPP-conjugated peptides at 10 μM in mTeSR Plus Medium, and the peptide-containing medium was changed every day over 10 days. The ROCK inhibitor (Tocris Bioscience, Y-27632) treated-hPSCs were dissociated into single cells using Accutase (Merck, SCR005) and differentiated into ectoderm, mesoderm, and endoderm using the STEMdiff Trilineage Differentiation Kit ([…] Technologies, 05230) following the manufacturer’s protocol. Differentiated cells treated with CPP-conjugated peptides were analysed at 0, 3, and 5 days for ectoderm and endoderm, and at 0, 3, and 4 days for mesoderm. […]
cDNA was synthesised using RevertAid Reverse Transcriptase (Thermo Fisher Scientific, EP0441) with synthesised random hexamer (Macrogen) for total RNA or stem-loop primers for miRNA. For RT-qPCR reactions, the SensiFAST SYBR No-ROX kit (Meridian Bioscience) was used according to the manufacturer’s protocol. All data analysis and visualisation were conducted using R 3.6.1 [www.r-project.org] or GraphPad Prism 10. RT primers for miRNA and RT-qPCR primer sequences are provided in Supplementary Data 6. […]
FPKM of each gene was presented f r om RNA-seq analysis. b–e hPSCs wer e treated with the indicated peptide during each germ la ye r differentiation. […]
An unpaired Student’s t-test was used for a–e. Data are presented as mean values ± SEM. All statistical test us ed wer e two-s ided. T he m inim um number of independent biological replicate experim ents was a–f n = 3. T he experiments wer e conducted three tim es, each iteration producing consistent results.

[1] = Fig. s7d, day 3, mean of 3 replicates
[2] = Fig. s7d, day 4, mean of 3 replicates

KKKWCRKKKSSADEKRYRALKRTAERELLMNA [CPP-P8, CPP conjugated to P8]
transcripts downregulated in ectodermal differentiation (ectodermal differentiation): downregulated the expression of genes closely associated with CNS development (DCX, NEUROD1, NOS2, and PAX3) | transcripts upregulated in ectodermal differentiation (ectodermal differentiation): upregulated the essential transcription factors for retinal gliogenesis and NOTCH signalling (LHX2, NOTCH1, and DLK1)

KKKWCRKKKSSADEKRYRALKRTAERELLMNA [P8]
CXCR4 (RT-qPCR) (Day 0, replicate 1, Fig. s7e): 1.088 | CXCR4 (RT-qPCR) (Day 0, replicate 2, Fig. s7e): 0.7848 | CXCR4 (RT-qPCR) (Day 0, replicate 3, Fig. s7e): 1.127 | CXCR4 (RT-qPCR) (Day 3, replicate 1, Fig. s7e): 70.9428 | CXCR4 (RT-qPCR) (Day 3, replicate 2, Fig. s7e): 396.929 | CXCR4 (RT-qPCR) (Day 3, replicate 3, Fig. s7e): 186.896 | CXCR4 (RT-qPCR) (Day 5, replicate 1, Fig. s7e): 166.399 | CXCR4 (RT-qPCR) (Day 5, replicate 2, Fig. s7e): 221.471 | CXCR4 (RT-qPCR) (Day 5, replicate 3, Fig. s7e): 55.5295 | Difference between means (B - A) ± SEM (CXCR4 day 3): -395.9 ± 135.2 | Mean CXCR4 (RT-qPCR) (CXCR4 day 3, mean of n = 3, Fig. s7e): 218.3 | Difference between means (B - A) ± SEM (CXCR4 day 5): -733.3 ± 94.11 | Mean CXCR4 (RT-qPCR) (CXCR4 day 5, mean of n = 3, Fig. s7e): 147.8 | FOXA1 (RT-qPCR) (Day 0, replicate 1, Fig. s7e): 1.247 | FOXA1 (RT-qPCR) (Day 0, replicate 2, Fig. s7e): 1.413 | FOXA1 (RT-qPCR) (Day 0, replicate 3, Fig. s7e): 0.3396 | FOXA1 (RT-qPCR) (Day 3, replicate 1, Fig. s7e): 74.3757 | FOXA1 (RT-qPCR) (Day 3, replicate 2, Fig. s7e): 54.052 | FOXA1 (RT-qPCR) (Day 3, replicate 3, Fig. s7e): 82.1532 | FOXA1 (RT-qPCR) (Day 5, replicate 1, Fig. s7e): 512.006 | FOXA1 (RT-qPCR) (Day 5, replicate 2, Fig. s7e): 494.768 | FOXA1 (RT-qPCR) (Day 5, replicate 3, Fig. s7e): 555.597 | Difference between means (B - A) ± SEM (FOXA1 day 5): 207.3 ± 47.14 | Mean FOXA1 (RT-qPCR) (FOXA1 day 5, mean of n = 3, Fig. s7e): 520.8 | SOX2 difference between means (P8 - P1) ± SEM (Fig. s7b, mesoderm, day 4, P8 vs. P1): 0.07995 ± 0.0229 | SOX2 mRNA level (RT-qPCR), mean (Fig. s7b, mesoderm, day 4, mean of 3 replicates): 0.08192 | BMP2 mRNA level (RT-qPCR) (Fig. s7d, Day 0, replicate 1): 0.8054 | BMP4 mRNA level (RT-qPCR) (Fig. s7d, Day 0, replicate 1): 1.545 | CDH2 mRNA level (RT-qPCR) (Fig. s7d, Day 0, replicate 1): 1.016 | CXCR4 mRNA level (RT-qPCR) (Fig. s7d, Day 0, replicate 1): 0.9995 | SNAI1 mRNA level (RT-qPCR) (Fig. s7d, Day 0, replicate 1): 1.4406 | TBXT mRNA level (RT-qPCR) (Fig. s7d, Day 0, replicate 1): 1.3 | BMP2 mRNA level (RT-qPCR) (Fig. s7d, Day 0, replicate 2): 1.199 | BMP4 mRNA level (RT-qPCR) (Fig. s7d, Day 0, replicate 2): 0.6508 | CDH2 mRNA level (RT-qPCR) (Fig. s7d, Day 0, replicate 2): 0.7569 | CXCR4 mRNA level (RT-qPCR) (Fig. s7d, Day 0, replicate 2): 1.121 | SNAI1 mRNA level (RT-qPCR) (Fig. s7d, Day 0, replicate 2): 0.9418 | TBXT mRNA level (RT-qPCR) (Fig. s7d, Day 0, replicate 2): 0.8652 | BMP2 mRNA level (RT-qPCR) (Fig. s7d, Day 0, replicate 3): 0.9954 | BMP4 mRNA level (RT-qPCR) (Fig. s7d, Day 0, replicate 3): 0.8046 | CDH2 mRNA level (RT-qPCR) (Fig. s7d, Day 0, replicate 3): 1.227 | CXCR4 mRNA level (RT-qPCR) (Fig. s7d, Day 0, replicate 3): 0.8798 | SNAI1 mRNA level (RT-qPCR) (Fig. s7d, Day 0, replicate 3): 0.6176 | TBXT mRNA level (RT-qPCR) (Fig. s7d, Day 0, replicate 3): 0.8351 | BMP2 mRNA level (RT-qPCR) (Fig. s7d, Day 3, replicate 1): 1.1089 | BMP4 mRNA level (RT-qPCR) (Fig. s7d, Day 3, replicate 1): 41.4056 | CDH2 mRNA level (RT-qPCR) (Fig. s7d, Day 3, replicate 1): 19.486 | CXCR4 mRNA level (RT-qPCR) (Fig. s7d, Day 3, replicate 1): 784.151 | SNAI1 mRNA level (RT-qPCR) (Fig. s7d, Day 3, replicate 1): 12.8862 | TBXT mRNA level (RT-qPCR) (Fig. s7d, Day 3, replicate 1): 3854.3 | BMP2 mRNA level (RT-qPCR) (Fig. s7d, Day 3, replicate 2): 1.096 | BMP4 mRNA level (RT-qPCR) (Fig. s7d, Day 3, replicate 2): 50.4784 | CDH2 mRNA level (RT-qPCR) (Fig. s7d, Day 3, replicate 2): 21.455 | CXCR4 mRNA level (RT-qPCR) (Fig. s7d, Day 3, replicate 2): 774.595 | SNAI1 mRNA level (RT-qPCR) (Fig. s7d, Day 3, replicate 2): 13.1184 | TBXT mRNA level (RT-qPCR) (Fig. s7d, Day 3, replicate 2): 4302.87 | BMP2 mRNA level (RT-qPCR) (Fig. s7d, Day 3, replicate 3): 1.333 | BMP4 mRNA level (RT-qPCR) (Fig. s7d, Day 3, replicate 3): 53.6277 | CDH2 mRNA level (RT-qPCR) (Fig. s7d, Day 3, replicate 3): 17.5345 | CXCR4 mRNA level (RT-qPCR) (Fig. s7d, Day 3, replicate 3): 641.469 | SNAI1 mRNA level (RT-qPCR) (Fig. s7d, Day 3, replicate 3): 12.7742 | TBXT mRNA level (RT-qPCR) (Fig. s7d, Day 3, replicate 3): 4804.52 | BMP2 mRNA level (RT-qPCR) (Fig. s7d, Day 4, replicate 1): 0.2478 | BMP4 mRNA level (RT-qPCR) (Fig. s7d, Day 4, replicate 1): 31.2396 | CDH2 mRNA level (RT-qPCR) (Fig. s7d, Day 4, replicate 1): 14.5509 | CXCR4 mRNA level (RT-qPCR) (Fig. s7d, Day 4, replicate 1): 668.803 | SNAI1 mRNA level (RT-qPCR) (Fig. s7d, Day 4, replicate 1): 16.3401 | TBXT mRNA level (RT-qPCR) (Fig. s7d, Day 4, replicate 1): 2083 | BMP2 mRNA level (RT-qPCR) (Fig. s7d, Day 4, replicate 2): 0.261 | BMP4 mRNA level (RT-qPCR) (Fig. s7d, Day 4, replicate 2): 27.7899 | CDH2 mRNA level (RT-qPCR) (Fig. s7d, Day 4, replicate 2): 13.2223 | CXCR4 mRNA level (RT-qPCR) (Fig. s7d, Day 4, replicate 2): 587.806 | SNAI1 mRNA level (RT-qPCR) (Fig. s7d, Day 4, replicate 2): 17.9864 | TBXT mRNA level (RT-qPCR) (Fig. s7d, Day 4, replicate 2): 2236.13 | BMP2 mRNA level (RT-qPCR) (Fig. s7d, Day 4, replicate 3): 0.2852 | BMP4 mRNA level (RT-qPCR) (Fig. s7d, Day 4, replicate 3): 35.8542 | CDH2 mRNA level (RT-qPCR) (Fig. s7d, Day 4, replicate 3): 15.5934 | CXCR4 mRNA level (RT-qPCR) (Fig. s7d, Day 4, replicate 3): 589.372 | SNAI1 mRNA level (RT-qPCR) (Fig. s7d, Day 4, replicate 3): 18.1009 | TBXT mRNA level (RT-qPCR) (Fig. s7d, Day 4, replicate 3): 2648.18 | SNAI1 difference between means (P8 - P1) ± SEM (Fig. s7d, day 3, P8 vs. P1): -10.01 ± 2.987 | SNAI1 difference between means, 95% confidence interval (Fig. s7d, day 3, P8 vs. P1): -18.30 to -1.717 | TBXT difference between means (P8 - P1) ± SEM (Fig. s7d, day 3, P8 vs. P1): -3827 ± 1244 | TBXT difference between means, 95% confidence interval (Fig. s7d, day 3, P8 vs. P1): -7280 to -372.8 | SNAI1 mRNA level (RT-qPCR), mean [1]: 12.93 | TBXT mRNA level (RT-qPCR), mean [1]: 4321 | BMP4 difference between means (P8 - P1) ± SEM (Fig. s7d, day 4, P8 vs. P1): 18.59 ± 2.500 | BMP4 difference between means, 95% confidence interval (Fig. s7d, day 4, P8 vs. P1): 11.65 to 25.53 | CDH2 difference between means (P8 - P1) ± SEM (Fig. s7d, day 4, P8 vs. P1): -2.944 ± 0.7977 | CDH2 difference between means, 95% confidence interval (Fig. s7d, day 4, P8 vs. P1): -5.158 to -0.7287 | TBXT difference between means (P8 - P1) ± SEM (Fig. s7d, day 4, P8 vs. P1): -1631 ± 305.2 | TBXT difference between means, 95% confidence interval (Fig. s7d, day 4, P8 vs. P1): -2478 to -783.3 | BMP4 mRNA level (RT-qPCR), mean [2]: 31.63 | CDH2 mRNA level (RT-qPCR), mean [2]: 14.46 | TBXT mRNA level (RT-qPCR), mean [2]: 2322 | GATA4 (RT-qPCR) (Day 0, replicate 1, Fig. s7e): 0.7242 | GATA4 (RT-qPCR) (Day 0, replicate 2, Fig. s7e): 1.3517 | GATA4 (RT-qPCR) (Day 0, replicate 3, Fig. s7e): 0.9241 | GATA4 (RT-qPCR) (Day 3, replicate 1, Fig. s7e): 32.2 | GATA4 (RT-qPCR) (Day 3, replicate 2, Fig. s7e): 35.8526 | GATA4 (RT-qPCR) (Day 3, replicate 3, Fig. s7e): 22.1669 | GATA4 (RT-qPCR) (Day 5, replicate 1, Fig. s7e): 75.9376 | GATA4 (RT-qPCR) (Day 5, replicate 2, Fig. s7e): 69.9276 | GATA4 (RT-qPCR) (Day 5, replicate 3, Fig. s7e): 152.842 | SOX17 (RT-qPCR) (Day 0, replicate 1, Fig. s7e): 1.264 | SOX17 (RT-qPCR) (Day 0, replicate 2, Fig. s7e): 0.8709 | SOX17 (RT-qPCR) (Day 0, replicate 3, Fig. s7e): 0.8647 | SOX17 (RT-qPCR) (Day 3, replicate 1, Fig. s7e): 2247.1 | SOX17 (RT-qPCR) (Day 3, replicate 2, Fig. s7e): 1796.71 | SOX17 (RT-qPCR) (Day 3, replicate 3, Fig. s7e): 1610.91 | SOX17 (RT-qPCR) (Day 5, replicate 1, Fig. s7e): 1021.85 | SOX17 (RT-qPCR) (Day 5, replicate 2, Fig. s7e): 1109.15 | SOX17 (RT-qPCR) (Day 5, replicate 3, Fig. s7e): 1096.19
